Experimental data taken from patent US20260130395A1, “Water Dispersible Botanical Compositions” (Aquila Black Limited, priority 2021, published 2026).

Experiment: Stability of cannabinoid compounds and Vitamin E components in Beverage 2 (AB Red) by LCMSMS
Format: physicochemical

Cc1c(C)c2c(c(C)c1O)CC[C@@](C)(CCC[C@H](C)CCC[C@H](C)CCCC(C)C)O2 [α-Tocopherol]
Stability of Vitamin Es in AB Red (stored at 8° C., 0 days): 25.3 µg/mL | Stability of Vitamin Es in AB Red (stored at 8° C., 1 days): 25.2 µg/mL | Stability of Vitamin Es in AB Red (stored at 8° C., 2 days): 24.9 µg/mL | Stability of Vitamin Es in AB Red (stored at 8° C., 3 days): 25.3 µg/mL | Stability of Vitamin Es in AB Red (stored at 8° C., 5 days): 24.2 µg/mL | Stability of Vitamin Es in AB Red (stored at 8° C., 8 days): 23.7 µg/mL | Stability of Vitamin Es in AB Red (stored at 8° C., 9 days): 24.6 µg/mL | Stability of Vitamin Es in AB Red (stored at 8° C., 10 days): 24.9 µg/mL | Stability of Vitamin Es in AB Red (stored at 8° C., 11 days): 23.9 µg/mL | Stability of Vitamin Es in AB Red (stored at 8° C., 12 days): 24.4 µg/mL | Stability of Vitamin Es in AB Red (stored at 8° C., 15 days): 25.6 µg/mL | Stability of Vitamin Es in AB Red (stored at 8° C., 16 days): 24.5 µg/mL | Stability of Vitamin Es in AB Red (stored at 8° C., 17 days): 23.6 µg/mL | Stability of Vitamin Es in AB Red (stored at 8° C., 18 days): 24.1 µg/mL | Stability of Vitamin Es in AB Red (stored at 8° C., 19 days): 24.0 µg/mL | Stability of Vitamin Es in AB Red (stored at 8° C., 22 days): 25.0 µg/mL | Stability of Vitamin Es in AB Red (stored at 8° C., 23 days): 23.2 µg/mL | Stability of Vitamin Es in AB Red (stored at 8° C., 24 days): 24.3 µg/mL | Stability of Vitamin Es in AB Red (stored at 8° C., 25 days): 23.6 µg/mL | Stability of Vitamin Es in AB Red (stored at 8° C., 26 days): 25.2 µg/mL | Stability of Vitamin Es in AB Red (stored at 8° C., 29 days): 23.5 µg/mL | Stability of Vitamin Es in AB Red (stored at 8° C., 30 days): 24.2 µg/mL | Stability of Vitamin Es in AB Red (stored at 8° C., 60 days): 24.2 µg/mL | Stability of Vitamin Es in AB Red (stored at 8° C., 90 days): 23.1 µg/mL | Stability of Vitamin Es in AB Red (stored at 8° C., 120 days): 25.2 µg/mL | Stability of Vitamin Es in AB Red (stored at 8° C., 150 days): 25.4 µg/mL | Stability of Vitamin Es in AB Red (stored at 8° C., 180 days): 23.6 µg/mL | Stability of Vitamin Es in AB Red (stored at 8° C., 210 days): 23.5 µg/mL | Stability of Vitamin Es in AB Red (stored at 8° C., 240 days): 23.6 µg/mL | Stability of Vitamin Es in AB Red (stored at 8° C., 270 days): 23.6 µg/mL | Stability of Vitamin Es in AB Red (stored at 8° C., 300 days): 23.1 µg/mL | Stability of Vitamin Es in AB Red (stored at 8° C., 330 days): 22.9 µg/mL | Stability of Vitamin Es in AB Red (stored at 8° C., 360 days): 22.4 µg/mL | Stability of Vitamin Es in AB Red (stored at 8° C., 390 days): 23.1 µg/mL | Stability of Vitamin Es in AB Red (stored at 8° C., 420 days): 22.3 µg/mL | Stability of Vitamin Es in AB Red (stored at 8° C., 450 days): 22.7 µg/mL | Stability of Vitamin Es in AB Red (stored at 8° C., 480 days): 21.8 µg/mL | Stability of Vitamin Es in AB Red (stored at 8° C., 510 days): 22.0 µg/mL | Stability of Vitamin Es in AB Red (stored at 8° C., 540 days): 21.8 µg/mL | Stability of Vitamin Es in AB Red (stored at 8° C., 570 days): 21.5 µg/mL | Stability of Vitamin Es in AB Red (stored at 21-25° C., 0 days): 25.3 µg/mL | Stability of Vitamin Es in AB Red (stored at 21-25° C., 1 days): 24.4 µg/mL | Stability of Vitamin Es in AB Red (stored at 21-25° C., 2 days): 24.1 µg/mL | Stability of Vitamin Es in AB Red (stored at 21-25° C., 3 days): 23.8 µg/mL | Stability of Vitamin Es in AB Red (stored at 21-25° C., 5 days): 22.9 µg/mL | Stability of Vitamin Es in AB Red (stored at 21-25° C., 8 days): 24.5 µg/mL | Stability of Vitamin Es in AB Red (stored at 21-25° C., 9 days): 23.3 µg/mL | Stability of Vitamin Es in AB Red (stored at 21-25° C., 10 days): 23.0 µg/mL | Stability of Vitamin Es in AB Red (stored at 21-25° C., 11 days): 24.4 µg/mL | Stability of Vitamin Es in AB Red (stored at 21-25° C., 12 days): 23.4 µg/mL | Stability of Vitamin Es in AB Red (stored at 21-25° C., 15 days): 24.8 µg/mL | Stability of Vitamin Es in AB Red (stored at 21-25° C., 16 days): 25.1 µg/mL | Stability of Vitamin Es in AB Red (stored at 21-25° C., 17 days): 24.4 µg/mL | Stability of Vitamin Es in AB Red (stored at 21-25° C., 18 days): 24.9 µg/mL | Stability of Vitamin Es in AB Red (stored at 21-25° C., 19 days): 25.4 µg/mL | Stability of Vitamin Es in AB Red (stored at 21-25° C., 22 days): 25.4 µg/mL | Stability of Vitamin Es in AB Red (stored at 21-25° C., 23 days): 24.6 µg/mL | Stability of Vitamin Es in AB Red (stored at 21-25° C., 24 days): 23.5 µg/mL | Stability of Vitamin Es in AB Red (stored at 21-25° C., 25 days): 25.5 µg/mL | Stability of Vitamin Es in AB Red (stored at 21-25° C., 26 days): 24.3 µg/mL | Stability of Vitamin Es in AB Red (stored at 21-25° C., 29 days): 24.4 µg/mL | Stability of Vitamin Es in AB Red (stored at 21-25° C., 30 days): 24.6 µg/mL | Stability of Vitamin Es in AB Red (stored at 21-25° C., 60 days): 24.4 µg/mL | Stability of Vitamin Es in AB Red (stored at 21-25° C., 90 days): 24.3 µg/mL | Stability of Vitamin Es in AB Red (stored at 21-25° C., 120 days): 23.7 µg/mL | Stability of Vitamin Es in AB Red (stored at 21-25° C., 150 days): 23.4 µg/mL | Stability of Vitamin Es in AB Red (stored at 21-25° C., 180 days): 23.3 µg/mL | Stability of Vitamin Es in AB Red (stored at 21-25° C., 210 days): 22.7 µg/mL | Stability of Vitamin Es in AB Red (stored at 21-25° C., 240 days): 23.1 µg/mL | Stability of Vitamin Es in AB Red (stored at 21-25° C., 270 days): 23.1 µg/mL | Stability of Vitamin Es in AB Red (stored at 21-25° C., 300 days): 23.5 µg/mL | Stability of Vitamin Es in AB Red (stored at 21-25° C., 330 days): 22.6 µg/mL | Stability of Vitamin Es in AB Red (stored at 21-25° C., 360 days): 21.9 µg/mL | Stability of Vitamin Es in AB Red (stored at 21-25° C., 390 days): 22.7 µg/mL | Stability of Vitamin Es in AB Red (stored at 21-25° C., 420 days): 22.5 µg/mL | Stability of Vitamin Es in AB Red (stored at 21-25° C., 450 days): 22.3 µg/mL | Stability of Vitamin Es in AB Red (stored at 21-25° C., 480 days): 21.6 µg/mL | Stability of Vitamin Es in AB Red (stored at 21-25° C., 510 days): 21.4 µg/mL | Stability of Vitamin Es in AB Red (stored at 21-25° C., 540 days): 21.0 µg/mL | Stability of Vitamin Es in AB Red (stored at 21-25° C., 570 days): 21.4 µg/mL
